Results taken from ChEMBL document CHEMBL1135392, “Rational determination of transfer free energies of small drugs across the water-oil interface” (J Med Chem, 2002).

Assays:
Conditions in all cases: octanol/water
[1] = Partition coefficient (logP)
[2] = Partition coefficient (logP) (dodecane)
[3] = Partition coefficient across water-dodecane interface by statistical simulation

Row | Structure (SMILES) | logP [1] | logP [2] | logP [3]
1 | CC(=O)c1ccc(S(C)(=O)=O)cc1 | 0.33 | -1.56 | –
2 | Oc1cccc(Cl)c1 | – | -0.34 | –
3 | CN1C(=O)Cc2ccccc21 | 0.63 | -0.9 | –
4 | Brc1cnc2ccccc2c1 | 3.11 | 2.59 | –
5 | OC[C@H]1O[C@H](O)[C@H](O)[C@@H](O)[C@@H]1O | -3.02 | < -3 | –
6 | CC(=O)Nc1ccccc1 [ACETANILIDE] | 1.13 | -1.76 | –
7 | CC(=O)c1ccccc1 [ACETOPHENONE] | 1.56 | 0.94 | –
8 | c1ccc2nc3ccccc3cc2c1 [ACRIDINE] | 2.98 | 2.32 | –
9 | COc1ccccc1 [ANISOLE] | – | 2.06 | –
10 | NC(=O)c1ccccc1N [ANTHRANILAMIDE] | 0.32 | -2.72 | –
11 | Cc1cc(=O)n(-c2ccccc2)n1C [ANTIPYRINE] | – | -2.52 | -2.5
12 | NC(=O)c1ccccc1 [BENZAMIDE] | 0.67 | -2.67 | –
13 | NS(=O)(=O)c1ccccc1 [BENZENESULFONAMIDE] | 0.33 | -3.14 | –
14 | OCc1ccccc1 [BENZYL ALCOHOL] | – | -0.77 | –
15 | O=[N+]([O-])c1ccccc1 [NITROBENZENE] | 1.84 | 1.43 | –
16 | O=C1Cc2ccccc2N1 [OXINDOLE] | 1.07 | -1.95 | –
17 | Oc1ccccc1 [PHENOL] | 1.5 | -1.04 | –
18 | c1ccc2nccnc2c1 [QUINOXALINE] | 1.35 | 0.51 | –
